Measurements: article PMC10313671, “Accelerating the prediction and discovery of peptide hydrogels with human-in-the-loop” (Nature Communications, 2023)
Where a SMILES comes first, the peptide text is derived from it.

Assays:
[1] = Transmission electron microscope (negative staining) of peptide assemblies; conditions: for Morphology: TEM, negative staining with uranyl acetate, 120 kV; for morphology by TEM (in words): aqueous solution or hydrogel, negative staining
Procedure: We used the negative staining technique to observe the morphologies formed by peptides. A micropipette was used to load 10 μL of sample solution to a carbon-coated copper grid, and we used a piece of filter paper to remove the excess solution. After rinsing the grid with the deionized water, we used uranyl acetate to stain the sample for 1 minute and then rinsed the grid with deionized water again.

[2] = Optical images of aqueous peptide solutions at four concentrations; format: physicochemical; conditions: pH = 7.5
Procedure: [7. What are the pH values of the hydrogels formed? […]
the captions of proper figures.]
We thank the reviewer for the comment. […]
the information of pH values of tetrapeptide hydrogels/solutions in the captions of Fig. 3a and d. […]
Insets: […]
optical images of corresponding solution/suspension (pH=7.5). […]
[8. Is it surprising that both QQQQ and EEEE form suspension at 120 mM? Any explanation from either ML perspective or thermodynamic prospective?]
We thank the reviewer for the comment. From the ML or simulation perspective, both QQQQ and […]
hydrophilicity and lack of sufficient directional hydrogen bonds captured in simulation and prediction. However, the formation of suspension in real experiments indicate the formation of aggregates, and we attribute this to the thermodynamic factor of concentration.
Actually, we also found this phenomenon on RRRR (also contains four charged amino acids), and […]
We compared the optical images of QQQQ and EEEE at four concentrations (30, 60, 90, and 120 […]
transparency decreased (60, 90, and 120 mM) due to the formation of aggregates. As for EEEE, at […]
suspension. We tend to think that as the concentration of charged tetrapeptides increases, the hydrogen bond between peptide molecules and water is strengthened, resulting in the formation of […]
aggregates at high concentrations. […]
description in Lines 214-216 of this main text.
Fig. R1 The optical images of QQQQ and EEEE aqueous solutions at four concentrations (30, 60, […]
with different sizes in an aqueous solution, qualitatively consistent with the morphologies obtained in MD simulations except for RRRR (Fig. 3d, right column), showing different levels of aggregation. Taking the TEM result of RRRR together, we attributed this to the thermodynamic factor of concentration. Finally, we presented a summary of the assembled morphologies of all […]
tetrapeptides tended to form fibers, sheets, or hybrid morphology (70%) in an aqueous solution. […]
[…]
(1 picture or pasted object on this page, not shown here)

[3] = Peptide hydrogel formation, vial-inverting method; format: physicochemical; design: key to EXP / GELATION: 0: no hydrogel; 1: hydrogel; conditions: for State: ultrasonication, standing 48 h; for State / GELATION / hydrogel formation (in words): vial-inverting method; for Concentration: concentration at which the state was recorded: lowest of 30, 60, 90, 120 mM that gave a gel, 120 mM for non-gelating peptides; for GELATION: 1 = hydrogel, 0 = no hydrogel; for hydrogel formation (in words): representative hydrogels pH between 7.0 to 7.5
Summary of the method: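 Tetrapeptides dissolved in ultrapure water at 30 mM, pH brought to 6.5–8.5 with 1 N NaOH stepwise with brief ultrasonication, then left 48 h. Gel defined as self-supporting and non-flowing on vial inversion; non-gelling peptides retested at 60, 90 and 120 mM.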

[4] = 120 mM peptide (highest tested) in ultrapure water, pH 6.5-8.5 (1 N NaOH), precipitate, sol, suspension = no gel
[5] = 60 mM peptide in ultrapure water, pH 6.5-8.5 (1 N NaOH), no gel at 30 mM
[6] = 30 mM peptide in ultrapure water, pH adjusted to 6.5-8.5 with 1 N NaOH, concentration raised 30/60/90/120 mM until gelation

SMILES | Morphology ([1]; line of the table gives 120 mM) | State [3, 4] | Concentration [3] | GELATION ([3]; peptide concentration 120 mM) | further results
N[C@@H](CCC(=O)O)C(=O)N[C@@H](CCC(=O)O)C(=O)N[C@@H](CCC(=O)O)C(=O)N[C@@H](CCC(=O)O)C(=O)O [EEEE] (H-EEEE-OH) | sheet | suspension | 120000 µM | 0 | appearance of aqueous solution (optical image) ([2]; 30 mM): uniform and clear solutions; appearance of aqueous solution (optical image) ([2]; 60 mM): uniform and clear solutions; appearance of aqueous solution (optical image) ([2]; 90 mM): uniform and clear solutions; appearance of aqueous solution (optical image) ([2]; 120 mM): opaque suspension
NC(=O)CC[C@H](NC(=O)[C@H](CCC(N)=O)NC(=O)[C@H](CCC(N)=O)NC(=O)[C@@H](N)CCC(N)=O)C(=O)O [QQQQ] (H-QQQQ-OH) | sheet | suspension | 120000 µM | 0 | appearance of aqueous solution (optical image) ([2]; 30 mM): clear solution; appearance of aqueous solution (optical image) ([2]; 60 mM): solution transparency decreased; appearance of aqueous solution (optical image) ([2]; 90 mM): solution transparency decreased; appearance of aqueous solution (optical image) ([2]; 120 mM): solution transparency decreased
O=C(O)[C@H](CS)NC(=O)[C@H](Cc1c[nH]c2ccccc12)NC(=O)[C@H](Cc1c[nH]c2ccccc12)NC(=O)[C@@H]1CCCN1 [PWWC] (H-PWWC-OH) | aggregates | suspension | 120000 µM | 0 | 
CC(C)C[C@H](NC(=O)[C@H](CC(C)C)NC(=O)[C@H](Cc1ccccc1)NC(=O)[C@@H](N)CCCCN)C(=O)O [KFLL] (H-KFLL-OH) | aggregates | sol | 120000 µM |  | 
C[C@H](NC(=O)[C@@H](N)CO)C(=O)N[C@@H](Cc1c[nH]c2ccccc12)C(=O)N[C@@H](Cc1ccccc1)C(=O)O [SAWF] (H-SAWF-OH) |  |  | 60000 µM |  | Morphology ([1]; line of the table gives 60 mM): fibre; State [3, 5]: gel; GELATION ([3]; peptide concentration 60 mM): 1
C[C@H](NC(=O)[C@@H](N)Cc1ccc(O)cc1)C(=O)N[C@@H](Cc1ccc(O)cc1)C(=O)N[C@@H](Cc1ccc(O)cc1)C(=O)O [YAYY] (H-YAYY-OH) | aggregates | sol | 120000 µM | 0 | 
C[C@H](NC(=O)[C@@H](N)Cc1ccccc1)C(=O)N[C@@H](Cc1ccccc1)C(=O)N1CCC[C@H]1C(=O)O [FAFP] (H-FAFP-OH) | particle | suspension | 120000 µM | 0 | 
CC[C@H](C)[C@H](N)C(=O)N[C@H](C(=O)N[C@H](C(=O)N[C@H](C(=O)O)[C@@H](C)CC)[C@@H](C)CC)C(C)C [IVII] (H-IVII-OH) |  |  | 30000 µM |  | Morphology ([1]; line of the table gives 30 mM): sheet; State [3, 6]: gel; GELATION ([3]; peptide concentration 30 mM): 1
CC(C)C[C@H](NC(=O)[C@@H](N)CC(C)C)C(=O)N[C@@H](Cc1c[nH]cn1)C(=O)N[C@@H](Cc1ccccc1)C(=O)O [LLHF] (H-LLHF-OH) |  |  | 30000 µM |  | Morphology ([1]; line of the table gives 30 mM): hybrid(sphere+fibre); State [3, 6]: gel; GELATION ([3]; peptide concentration 30 mM): 1
CC(C)C[C@H](NC(=O)[C@@H](NC(=O)CN)C(C)C)C(=O)N[C@@H](Cc1ccccc1)C(=O)O [GVLF] (H-GVLF-OH) |  |  | 60000 µM |  | Morphology ([1]; line of the table gives 60 mM): rod; State [3, 5]: gel; GELATION ([3]; peptide concentration 60 mM): 1
CC[C@H](C)[C@H](NC(=O)[C@@H](NC(=O)[C@@H](N)Cc1ccccc1)C(C)C)C(=O)N[C@@H](Cc1ccc(O)cc1)C(=O)O [FVIY] (H-FVIY-OH) |  |  | 30000 µM |  | morphology by TEM (in words) [1]: entangled nanofibers; State [3, 6]: gel; GELATION ([3]; peptide concentration 30 mM): 1; hydrogel formation (in words) [3]: hydrogels
CC[C@H](C)[C@H](N)C(=O)N[C@@H](Cc1c[nH]c2ccccc12)C(=O)N[C@H](C(=O)N[C@H](C(=O)O)[C@@H](C)CC)[C@@H](C)CC [IWII] (H-IWII-OH) | aggregates | suspension | 120000 µM | 0 | EXP ([3]; experimental gelation result of the synthesized peptide): 0
CC[C@H](C)[C@H](N)C(=O)N[C@@H](Cc1ccccc1)C(=O)N[C@@H](Cc1ccc(O)cc1)C(=O)N[C@H](C(=O)O)[C@@H](C)O [IFYT] (H-IFYT-OH) |  |  | 60000 µM |  | Morphology ([1]; line of the table gives 60 mM): sheet; morphology by TEM (in words) [1]: interlaced nanosheets; State [3, 5]: gel; GELATION ([3]; peptide concentration 60 mM): 1; hydrogel formation (in words) [3]: hydrogels
CSCC[C@H](NC(=O)[C@H](CCSC)NC(=O)[C@H](Cc1ccccc1)NC(=O)[C@@H](N)Cc1c[nH]c2ccccc12)C(=O)O [WFMM] (H-WFMM-OH) |  |  | 30000 µM |  | Morphology ([1]; line of the table gives 30 mM): fibre; State [3, 6]: gel; GELATION ([3]; peptide concentration 30 mM): 1
N[C@@H](CO)C(=O)N[C@@H](CO)C(=O)N[C@@H](Cc1ccccc1)C(=O)N[C@@H](Cc1ccccc1)C(=O)O [SSFF] (H-SSFF-OH) |  |  | 30000 µM |  | Morphology ([1]; line of the table gives 30 mM): fibre; State [3, 6]: gel; GELATION ([3]; peptide concentration 30 mM): 1
CC(C)C[C@H](NC(=O)[C@H](Cc1c[nH]c2ccccc12)NC(=O)[C@@H](NC(=O)[C@@H](N)CCCCN)C(C)C)C(=O)O [KVWL] (H-KVWL-OH) |  |  | 60000 µM |  | Morphology ([1]; line of the table gives 60 mM): fibre; State [3, 5]: gel; GELATION ([3]; peptide concentration 60 mM): 1
NCC(=O)NCC(=O)NCC(=O)NCC(=O)O [GGGG] (H-GGGG-OH) | aggregates | sol | 120000 µM | 0 | 
CSCC[C@H](NC(=O)[C@@H](N)CCSC)C(=O)N[C@@H](CC(C)C)C(=O)N[C@@H](CC(C)C)C(=O)O [MMLL] (H-MMLL-OH) |  |  | 90000 µM |  | Morphology ([1]; line of the table gives 90 mM): sheet; State ([3]; 90 mM peptide in ultrapure water, pH 6.5-8.5 (1 N NaOH), no gel at lower concentrations): gel; GELATION ([3]; peptide concentration 90 mM): 1
CSCC[C@H](NC(=O)[C@@H]1CCCN1)C(=O)N[C@@H](Cc1ccccc1)C(=O)N[C@@H](Cc1ccc(O)cc1)C(=O)O [PMFY] (H-PMFY-OH) |  |  | 60000 µM |  | Morphology ([1]; line of the table gives 60 mM): sheet; State [3, 5]: gel; GELATION ([3]; peptide concentration 60 mM): 1
CC(C)C[C@H](NC(=O)[C@H](C)NC(=O)[C@@H](N)C(C)C)C(=O)N[C@@H](CCC(=O)O)C(=O)O [VALE] (H-VALE-OH) | aggregates | suspension | 120000 µM | 0 | 
CC(C)C[C@H](NC(=O)[C@@H](NC(=O)[C@H](CC(C)C)NC(=O)[C@@H](N)C(C)C)C(C)C)C(=O)O [VLVL] (H-VLVL-OH) | sheet | gel | 120000 µM | 1 | 
NCCCC[C@H](NC(=O)[C@H](CCCCN)NC(=O)[C@H](CCCCN)NC(=O)[C@@H](N)CCCCN)C(=O)O [KKKK] (H-KKKK-OH) | blank | sol | 120000 µM | 0 | 
CSCC[C@H](NC(=O)[C@@H](N)Cc1ccccc1)C(=O)N[C@@H](CC(C)C)C(=O)N[C@@H](Cc1ccccc1)C(=O)O [FMLF] (H-FMLF-OH) |  |  | 30000 µM |  | Morphology ([1]; line of the table gives 30 mM): sheet; State [3, 6]: gel; GELATION ([3]; peptide concentration 30 mM): 1
